The record followed here is patent US20240116985A1, “STAPLED PEPTIDES AND METHODS THEREOF” (priority 2020, published 2024).

One data set can be described thus: Solubility in PBS. The format is physicochemical. Summed up:
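Read-out is the HPLC peak area of the supernatant from ultracentrifuged PBS solution, scaled against a 50 μM peptide DMSO injection; value reported as [(PBS area)/(DMSO area)]*50 uM.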

Data set [1] deals with T1, full-length beta-Catenin (Uniprot ID P35222) (Homo sapiens, UniProt P35222).
T1 construct: 10 nM full-length beta-Catenin (Uniprot ID P35222)
T1 sequence (P35222 1-781): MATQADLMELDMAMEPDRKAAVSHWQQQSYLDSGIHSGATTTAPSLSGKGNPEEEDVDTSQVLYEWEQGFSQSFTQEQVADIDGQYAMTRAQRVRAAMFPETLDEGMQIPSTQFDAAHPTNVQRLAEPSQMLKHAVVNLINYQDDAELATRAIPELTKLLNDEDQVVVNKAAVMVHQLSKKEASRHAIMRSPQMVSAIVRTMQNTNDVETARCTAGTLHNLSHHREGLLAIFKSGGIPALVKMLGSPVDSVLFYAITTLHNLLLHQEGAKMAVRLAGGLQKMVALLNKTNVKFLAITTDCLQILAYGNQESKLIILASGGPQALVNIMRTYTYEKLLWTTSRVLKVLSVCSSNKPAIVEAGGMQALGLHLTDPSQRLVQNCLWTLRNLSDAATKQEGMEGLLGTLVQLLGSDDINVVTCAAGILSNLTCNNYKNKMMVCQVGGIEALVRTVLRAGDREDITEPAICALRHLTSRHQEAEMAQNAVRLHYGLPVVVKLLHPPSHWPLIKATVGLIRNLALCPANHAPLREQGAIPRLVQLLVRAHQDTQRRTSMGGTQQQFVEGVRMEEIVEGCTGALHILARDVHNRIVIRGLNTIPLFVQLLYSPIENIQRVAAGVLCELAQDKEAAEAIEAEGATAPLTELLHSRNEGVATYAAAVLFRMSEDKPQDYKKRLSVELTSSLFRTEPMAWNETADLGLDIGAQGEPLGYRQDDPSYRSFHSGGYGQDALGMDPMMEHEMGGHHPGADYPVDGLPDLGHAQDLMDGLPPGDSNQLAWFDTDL
Kind of data set: Fluorescence polarization IC50 (beta-catenin / 5FAM-TCF4 10-53 competition). The format is binding.

A further data set is described as follows: CHI Log D procedure. Particulars: for chromatographic logD: pH 7.4, CHI Log D; for CHI Log D: pH 7.4. Format: physicochemical.
Where [2] appears, read: fluorescence polarization, read-out: beta-Catenin FP IC50.

As a reminder, the Solubility is the dissolved amount per volume that the medium holds. Low values mean little dissolved substance, high ones much dissolved substance. The term chromatographic logD denotes a lipophilicity value derived from retention on a column.

pIC50: −log10 of the molar value. Values after ≈ are worked out from the molar mass of the structure shown. Like-named read-outs stand apart in the source and are kept apart here.

Turning to `CC[C@H](NC(=O)[C@H](Cc1csc2ccccc12)NC(=O)[C@H](Cc1ccccc1)NC(=O)[C@]1(C)CCCCCCC=CCCCC2(CCCC=CC[C@]3(CCCN3C(C)=O)C(=O)N[C@@H](CC(=O)O)C(=O)N[C@@H](C)C(=O)N2)C(=O)N[C@@H](CC(=O)O)C(=O)N[C@@H](CCC(=O)O)C(=O)N[C@@H](C)C(=O)N[C@@H](C)C(=O)N[C@@H](Cc2ccccc2)C(=O)N[C@@H](CCC(N)=O)C(=O)N1)C(N)=O` (stereo partly drawn) [I-509, Ac-PL3-Asp-Ala-B5-Asp-Glu-Ala-Ala-Phe-Gln-S8-Phe-BztA-Abu-NH2], the Solubility in the data set “Solubility in PBS” (Solubility (uM)) came out at 41 µM (≈ 73.7 µg/mL). Moreover, in data set [1] (setting [2]), the pIC50 is 7.00. In addition, the chromatographic logD in “CHI Log D procedure” worked out at 2.16.

Take `COc1ccccc1C[C@H](NC(=O)[C@]1(C)CCCCCCC=CCCCC2(CCCC=CC[C@]3(CCCN3C(C)=O)C(=O)N[C@@H](CC(=O)O)C(=O)N[C@@H](C)C(=O)N2)C(=O)N[C@@H](CC(=O)O)C(=O)N[C@@H](CCC(=O)O)C(=O)N[C@@H](C)C(=O)N[C@@H](C)C(=O)N[C@@H](Cc2ccccc2)C(=O)N[C@@H](CC(N)=O)C(=O)N1)C(=O)N[C@@H](Cc1csc2ccccc12)C(=O)N[C@@H](Cc1c[nH]cn1)C(N)=O` (stereo partly drawn) [I-510, Ac-PL3-Asp-Ala-B5-Asp-Glu-Ala-Ala-Phe-Asn-S8-2OMeF-BztA-His-NH2]: in “Solubility in PBS”, the “Solubility” value amounted to 43 µM (≈ 80.2 µg/mL). Also, the pIC50 in data set [1] (setting [2]) and in data set [1] (read-out: FP EC50) was 6.89 in each case. Further, in “CHI Log D procedure”, the “CHI Log D” value came out at 2.057.

Consider `COc1ccccc1C[C@H](NC(=O)[C@]1(C)CCCCCCC=CCCCC2(CCCC=CC[C@]3(CCCN3C(C)=O)C(=O)N[C@@H](CC(=O)O)C(=O)N[C@@H](C)C(=O)N2)C(=O)N[C@@H](CC(=O)O)C(=O)N[C@@H](CCC(=O)O)C(=O)N[C@@H](C)C(=O)N[C@@H](C)C(=O)N[C@@H](Cc2ccccc2)C(=O)N[C@@H](CC(N)=O)C(=O)N1)C(=O)N[C@@H](Cc1csc2ccccc12)C(=O)N[C@@H](Cc1c[nH]cn1)C(N)=O` (stereo partly drawn) [I-511, Ac-PL3-Asp-Ala-B5-Asp-Glu-Ala-Ala-Phe-Asn-S8-2OMeF-BztA-His-NH2], for which the “Solubility” value in “Solubility in PBS” stood at 29 µM (≈ 54.1 µg/mL). Also, the pIC50 in data set [1] (setting [2]) and in data set [1] (read-out: FP EC50) was 7.40 in each case. Moreover, in “CHI Log D procedure”, the “CHI Log D” value amounted to 2.099.

`CC(=O)N1CCC[C@]12CC=CCCCC1(CCCC=CCCCCCC[C@@](C)(C(=O)N[C@@H](Cc3ccccc3C(N)=O)C(=O)N[C@@H](Cc3csc4ccccc34)C(=O)N[C@@H](Cc3c[nH]cn3)C(N)=O)NC(=O)[C@H](CC(N)=O)NC(=O)[C@H](Cc3ccccc3)NC(=O)[C@H](C)NC(=O)[C@H](C)NC(=O)[C@H](CCC(=O)O)NC(=O)[C@H](CC(=O)O)NC1=O)NC(=O)[C@H](C)NC(=O)[C@H](CC(=O)O)NC2=O` (stereo partly drawn) [I-513, Ac-PL3-Asp-Ala-B5-Asp-Glu-Ala-Ala-Phe-Asn-S8-2CBMF-BztA-His-NH2]: the “Solubility” value in the data set “Solubility in PBS” was 50 µM (≈ 94 µg/mL). Besides, the pIC50 in data set [1] (setting [2]) is 6.84. The chromatographic logD in “CHI Log D procedure” turned out to be 1.57.

With `CC(=O)N1CCC[C@]12CC=CCCCC1(CCCC=CCCCCCC[C@@](C)(C(=O)N[C@@H](Cc3ccsc3)C(=O)N[C@@H](Cc3csc4ccccc34)C(=O)N[C@@H](Cc3c[nH]cn3)C(N)=O)NC(=O)[C@H](CC(N)=O)NC(=O)[C@H](Cc3ccccc3)NC(=O)[C@H](C)NC(=O)[C@H](C)NC(=O)[C@H](CCC(=O)O)NC(=O)[C@H](CC(=O)O)NC1=O)NC(=O)[C@H](C)NC(=O)[C@H](CC(=O)O)NC2=O` (stereo partly drawn) [I-515, Ac-PL3-Asp-Ala-B5-Asp-Glu-Ala-Ala-Phe-Asn-S8-3Thi-BztA-His-NH2], in “Solubility in PBS”, the “Solubility” value was 46 µM (≈ 84.7 µg/mL). In addition, the pIC50 in data set [1] (setting [2]) and in data set [1] (read-out: FP EC50) was 7.27 each time. The “CHI Log D” value in “CHI Log D procedure” worked out at 2.028.

On to `CC(=O)N1CCC[C@]12CC=CCCCC1(CCCC=CCCCCCC[C@@](C)(C(=O)N[C@@H](Cc3ccsc3)C(=O)N[C@@H](Cc3csc4ccccc34)C(=O)N[C@@H](Cc3c[nH]cn3)C(N)=O)NC(=O)[C@H](CC(N)=O)NC(=O)[C@H](Cc3ccccc3)NC(=O)[C@H](C)NC(=O)[C@H](C)NC(=O)[C@H](CCC(=O)O)NC(=O)[C@H](CC(=O)O)NC1=O)NC(=O)[C@H](C)NC(=O)[C@H](CC(=O)O)NC2=O` (stereo partly drawn) [I-516, Ac-PL3-Asp-Ala-B5-Asp-Glu-Ala-Ala-Phe-Asn-S8-3Thi-BztA-His-NH2], for which, in “Solubility in PBS”, the “Solubility” value was 42 µM (≈ 77.4 µg/mL). Also, the pIC50 in data set [1] (setting [2]) and in data set [1] (read-out: FP EC50) was 7.64 in each case. Also, in “CHI Log D procedure”, the “CHI Log D” value turned out to be 2.072.

Consider `CC(=O)N1CCC[C@]12CC=CCCCC1(CCCC=CCCCCCC[C@@](C)(C(=O)N[C@@H](Cc3ccsc3)C(=O)N[C@@H](Cc3csc4ccccc34)C(=O)N[C@@H](CCC(N)=O)C(N)=O)NC(=O)[C@H](CC(N)=O)NC(=O)[C@H](Cc3ccccc3)NC(=O)[C@H](C)NC(=O)[C@H](C)NC(=O)[C@H](CCC(=O)O)NC(=O)[C@H](CC(=O)O)NC1=O)NC(=O)[C@H](C)NC(=O)[C@H](CC(=O)O)NC2=O` (stereo partly drawn) [I-518, Ac-PL3-Asp-Ala-B5-Asp-Glu-Ala-Ala-Phe-Asn-S8-3Thi-BztA-Gln-NH2], for which the “Solubility” value in the data set “Solubility in PBS” is 39 µM (≈ 71.5 µg/mL). Also, the pIC50 in data set [1] (setting [2]) and in data set [1] (read-out: FP EC50) was 6.84 throughout. Besides, in the data set “CHI Log D procedure”, the “CHI Log D” value was found to be 1.966.

On to `CC[C@H](C)[C@@H]1NC(=O)[C@H](CC(=O)O)NC(=O)[C@]2(CC=CCCCC3(CCCC=CCCCCCC[C@@](C)(C(=O)N[C@@H](Cc4ccsc4)C(=O)N[C@@H](Cc4csc5ccccc45)C(=O)N[C@@H](CCC(N)=O)C(N)=O)NC(=O)[C@H](CC(N)=O)NC(=O)[C@H](Cc4ccccc4)NC(=O)[C@H](C)NC(=O)[C@H](C)NC(=O)[C@H](CCC(=O)O)NC(=O)[C@H](CC(=O)O)NC3=O)NC1=O)CCCN2C(C)=O` (stereo partly drawn) [I-520, Ac-PL3-Asp-Ile-B5-Asp-Glu-Ala-Ala-Phe-Asn-S8-3Thi-BztA-Gln-NH2], for which the “Solubility” value in “Solubility in PBS” stood at 50 µM (≈ 93.8 µg/mL). Besides, the pIC50 in data set [1] (setting [2]) and in data set [1] (read-out: FP EC50) was 7.35 in each case. Moreover, the “CHI Log D” value in “CHI Log D procedure” stood at 2.313.

Regarding `CCC[C@@H]1NC(=O)[C@H](CC(=O)O)NC(=O)[C@]2(CC=CCCCC3(CCCC=CCCCCCC[C@@](C)(C(=O)N[C@@H](Cc4ccccc4)C(=O)N[C@@H](Cc4csc5ccccc45)C(=O)N[C@@H](CCC(N)=O)C(N)=O)NC(=O)[C@H](CCC(N)=O)NC(=O)[C@H](Cc4ccccc4)NC(=O)[C@H](C)NC(=O)[C@H](C)NC(=O)[C@H](CCC(=O)O)NC(=O)[C@H](CC(=O)O)NC3=O)NC1=O)CCCN2C(C)=O` (stereo partly drawn) [I-522, Ac-PL3-Asp-Nva-B5-Asp-Glu-Ala-Ala-Phe-Gln-S8-Phe-BztA-Gln-NH2], the “Solubility” value in “Solubility in PBS” is 50 µM (≈ 93.5 µg/mL). Besides, the pIC50 in data set [1] (setting [2]) and in data set [1] (read-out: FP EC50) was 7.12 throughout. In “CHI Log D procedure”, the “CHI Log D” value was 2.214.

Turning to `CCC[C@@H]1NC(=O)[C@H](CC(=O)O)NC(=O)[C@]2(CC=CCCCC3(CCCC=CCCCCCC[C@@](C)(C(=O)N[C@@H](Cc4ccccc4)C(=O)N[C@@H](Cc4csc5ccccc45)C(=O)N[C@@H](CCC(N)=O)C(N)=O)NC(=O)[C@H](CCC(N)=O)NC(=O)[C@H](Cc4ccccc4)NC(=O)[C@H](C)NC(=O)[C@H](C)NC(=O)[C@H](CCC(=O)O)NC(=O)[C@H](CC(=O)O)NC3=O)NC1=O)CCCN2C(C)=O` (stereo partly drawn) [I-523, Ac-PL3-Asp-Nva-B5-Asp-Glu-Ala-Ala-Phe-Gln-S8-Phe-BztA-Gln-NH2], the “Solubility” value in the data set “Solubility in PBS” amounted to 50 µM (≈ 93.5 µg/mL). In addition, the pIC50 in data set [1] (setting [2]) and in data set [1] (read-out: FP EC50) was 7.36 in each case. The “CHI Log D” value in “CHI Log D procedure” is listed as 2.241.
